Source: the NIST ThermoML archive (doi:10.1016/j.fluid.2018.09.026)
Where “and” joins values, the source holds several entries; their conditions need not be identical. Equal values may be shown once.

Details: Liquid; for mass density: Vibrating tube method; for viscosity: 293.23 K, Vibrating wire viscometry

OCCOCCO [diethylene glycol]
Details	mass density [kg/m3]
283.15 K, 100 kPa	1123.1
283.15 K, 640 kPa	1123.3
283.15 K, 1080 kPa	1123.5
283.15 K, 1590 kPa	1123.7
283.15 K, 2140 kPa	1124
283.15 K, 3050 kPa	1124.3
283.15 K, 5050 kPa	1125.2
283.15 K, 6930 kPa	1126
283.15 K, 9930 kPa	1127.2
283.15 K, 14810 kPa	1129.3
283.15 K, 19760 kPa	1131.3
283.15 K, 24610 kPa	1133.3
283.15 K, 29600 kPa	1135.2
283.15 K, 34500 kPa	1137.1
283.15 K, 39420 kPa	1139
283.15 K, 44300 kPa	1140.8
283.15 K, 49180 kPa	1142.6
283.15 K, 54060 kPa	1144.4
283.15 K, 59030 kPa	1146.1
283.15 K, 63810 kPa	1147.8
283.15 K, 68760 kPa	1149.5
293.15 K, 100 kPa	1115.9
293.15 K, 570 kPa	1116.1
293.15 K, 1080 kPa	1116.3
293.15 K, 1530 kPa	1116.6
293.15 K, 2110 kPa	1116.8
293.15 K, 3080 kPa	1117.2
293.15 K, 5040 kPa	1118.1
293.15 K, 6990 kPa	1118.9
293.15 K, 9940 kPa	1120.2
293.15 K, 14840 kPa	1122.3
293.15 K, 19740 kPa	1124.3
293.15 K, 24680 kPa	1126.4
293.15 K, 29600 kPa	1128.4
293.15 K, 34530 kPa	1130.3
293.15 K, 39360 kPa	1132.2
293.15 K, 44320 kPa	1134.1
293.15 K, 49120 kPa	1136
293.15 K, 54090 kPa	1137.8
293.15 K, 58990 kPa	1139.6
293.15 K, 63820 kPa	1141.3
293.15 K, 68750 kPa	1143
303.15 K, 100 kPa	1108.8
303.15 K, 680 kPa	1109
303.15 K, 1130 kPa	1109.2
303.15 K, 1580 kPa	1109.4
303.15 K, 2120 kPa	1109.7
303.15 K, 3030 kPa	1110.1
303.15 K, 5040 kPa	1111
303.15 K, 6950 kPa	1111.9
303.15 K, 9960 kPa	1113.2
303.15 K, 14840 kPa	1115.4
303.15 K, 19740 kPa	1117.5
303.15 K, 24680 kPa	1119.6
303.15 K, 29610 kPa	1121.6
303.15 K, 34520 kPa	1123.6
303.15 K, 39380 kPa	1125.6
303.15 K, 44350 kPa	1127.5
303.15 K, 49140 kPa	1129.4
303.15 K, 54090 kPa	1131.3
303.15 K, 58990 kPa	1133.1

Details	viscosity
180 kPa	34.67 mPa·s [middle of 4 runs]
1170 kPa	34.84 mPa·s [middle of 4 runs]
2100 kPa	34.99 mPa·s [middle of 5 runs]
2110 kPa	35.15 mPa·s
5060 kPa	35.84 mPa·s and 36.03 mPa·s and 36.04 mPa·s
5070 kPa	35.72 mPa·s
10240 kPa	37.39 mPa·s [middle of 4 runs]
19990 kPa	40.52 mPa·s [middle of 4 runs]
29910 kPa	43.47 mPa·s and 43.45 mPa·s
29920 kPa	43.5 mPa·s and 43.6 mPa·s
40040 kPa	47.04 mPa·s [middle of 5 runs]
50530 kPa	51.14 mPa·s [middle of 4 runs]
69900 kPa	58.55 mPa·s
69990 kPa	58.38 mPa·s
70070 kPa	58.52 mPa·s
